“Also recorded” adds a separate entry of the source.

For one assay, the system named is ICAM1. In words: ICAM1 expression of spinal cord tissue by Western Blot, rat spinal cord injury model. It counts as in vivo. As to conditions: 15 mg/kg injected 15 minutes before striking injury, experimental group vs control group, gray level analysis. The method, then:
(§1) Animal models of acute spinal cord injury experiment were established by using an IMPACTOR MODEL-II spinal cord injury striking system. Sixty female Wistar rats with the age from 8 to 10 weeks and the weight from 230 to 250 g were divided into three groups with 20 rats in each group: a sham-surgery operated group, a control group (spinal cord injury group) and an experimental group, respectively. At 15 minutes before striking injury, the rats in the experimental group were injected with the compound of the formula (I) at a dose of 15 mg/kg body weight.
(§2) At 6 hours, 24 hours, 48 hours, 7 days, 14 days, and 28 days after injury, respectively, the rat spinal cord tissues were sampled for the Western Blot test, so as to test the inhibiting function of the compound of the formula (I) against the pro-inflammatory cytokines at the spinal cord injury sites.

In another assay the test system is TNF-α. In words: TNF-α expression of spinal cord tissue by Western Blot, rat spinal cord injury model. It counts as in vivo. The following applies: 15 mg/kg, experimental group vs control group, gray level analysis. The method, then:
as §1, §2

In the next assay the test system is IL-1β. In words: IL-1β expression of spinal cord tissue by Western Blot, rat spinal cord injury model. In kind it is in vivo. The following applies: 15 mg/kg, experimental group vs control group, gray level analysis. The method, then:
as §1, §2

A further assay deals with Caspase 3. In words: Caspase 3 expression of spinal cord tissue by Western Blot, rat spinal cord injury model. In kind it is in vivo. The following applies: 15 mg/kg, experimental group vs control group, gray level analysis. The method, then:
as §1
(§3) At 6 hours, 24 hours, 48 hours, 7 days, 14 days, 28 days and 56 days after injury, respectively, the rat spinal cord tissues were sampled for the Western Blot test and TUNEL staining, so as to test the inhibiting function of the compound of the formula (I) against the cell apoptosis at the spinal cord injury sites.

Assay [1] deals with spinal cord tissues. Briefly: TUNEL staining of spinal cord tissues (cell apoptosis), rat spinal cord injury model. In kind it is in vivo. As to conditions: 48 hours after injury; 15 mg/kg; difference between control group and experimental group. The method, then: as §1, §3
At 48 hours after injury, TUNEL staining was performed on three groups of spinal cord tissues. TUNEL-stained positive cells were located in the gray matter and white matter of the spinal cords, and the cell nuclei was stained brown-yellow and mostly distributed in the center of the injure and the margin thereof. […]

Assay [2] concerns spinal cord tissues. In words: HE staining of spinal cord tissues (void, inflammatory cells), rat spinal cord injury model. In kind it is in vivo. The method, then:
as §1
No spinal cord structure destroy was observed on the rats in the sham-surgery operated group. In the control group, significant changes occurred, mainly including hemorrhage, infiltration with a large number of inflammatory cells and spinal cord structural disorder, and it was observed that in grey matter, a large number of cells were lost, while in the white matter, significant swelling of neurites was observed and axonal terminals were in sphere.

Assay [3] deals with Glial Fibrillary Acidic Protein (GFAP). In words: GFAP frozen-section immunofluorescence (glial scar), rat spinal cord injury model. It counts as in vivo. Here is the method:
as §1
2. Testing Glial Fibrillary Acidic Protein (GFAP) Expression by Frozen-Section Immunofluorescence Histochemical Method
At 48 hours after injury, the spinal cord tissues were subjected to GFAP immunofluorescent staining.

The next assay relates to NEUN(+) neuron cells. Briefly: NEUN immunohistochemical staining (neuron survival), rat spinal cord injury model. In kind it is in vivo. The following applies: 48 hours and 2 weeks after injury; experimental group vs control group. Here is the method:
as §1
At 48 hours and 2 weeks after injury, respectively, the three groups of rat spinal cord tissues were subjected to NEUN immunohistochemical staining.

A further assay relates to oligodendrocytes. Briefly: CNpase immunohistochemical staining (oligodendrocyte survival), rat spinal cord injury model. It counts as in vivo. Here is the method: as §1
At 48 hours and 2 weeks after injury, respectively, the three groups of spinal cord tissues were subjected to CNpase immunohistochemical staining.

Assay [4] has as its system rats after spinal cord injury. Briefly: BBB score of motor function of rear limbs after spinal cord injury. In kind it is in vivo, rat. As to conditions: comparison between experimental group and control group. Here is the method: as §1
Motor function of rear limbs of the tested animals were evaluated by scoring with BBB (Basso Beattie Bresnahan locomotor rating scale, BBB). The BBB scoring was one of internationally recognized objective standards regarding nerve functions of rats after spinal cord injury. In the project, the motor function of rear limbs of the rats was evaluated from 1 day before injury to 8 weeks after injury by double-blind independent observations and records with two persons and finally statistical analyses.

With `CC(C)(C)OC(=O)c1ccc(NC23CC4CC(CC(C4)C2)C3)c(/N=C\c2cncnc2)c1` [compound of the formula (I)], the ICAM1 expression result with ICAM1 (2 weeks after injury) and in the assay with ICAM1 (48 hours after injury) was “significantly decreased” throughout. Also, the TNF-α expression result in the assay on TNF-α (2 weeks after injury) is on record as “significantly decreased”; in the assay with TNF-α (48 hours after injury), “decreased, close to the level of the shame-surgery operated group”. Besides, the IL-1β expression entry with IL-1β (2 weeks after injury) was “significantly decreased”; with IL-1β (48 hours after injury) it was “significantly decreased, close to the level of the shame-surgery operated group”. Besides, the “Caspase 3 expression” value with Caspase 3 (2 weeks after injury) and in the assay with Caspase 3 (48 hours after injury) was “significantly decreased” in each case. In addition, the “quantity of TUNEL-stained positive cells” value in the assay with spinal cord tissues [1] is recorded as “had a statistical significance (p<0.05)”. In the assay with spinal cord tissues [2] (8 weeks after spinal cord injury, control group compared to experimental group), the “area of voids (HE staining)” value is “significantly increased as compared to that in the experimental group”. In the assay on spinal cord tissues [2] (8 weeks after spinal cord injury, experimental group vs control group), the “inflammatory cells (HE staining, high magnification)” value is “significantly reduced”. In addition, the “HE staining changes (hemorrhage, inflammatory cell infiltration, spinal cord structural disorder)” value in the assay with spinal cord tissues [2] (48 hours after injury, 200×, 15 mg/kg, vs control group) is “could significantly alleviate the above series of changes”. Besides, in the assay with spinal cord tissues [2] (48 hours after injury, comparison between control group and experimental group), the histopathological scores entry is on record as “did not have statistical significance”. Besides, the GFAP fluorescence entry in [3] (2 weeks after surgery, control group vs experimental group) is listed as “control group was still stronger than the experimental group”. The “quantity of the formed glial scars (GFAP immunofluorescent staining)” value in [3] (48 hours after injury, experimental group vs control group) is recorded as “significantly decreased as compared to the control group”. In the assay with NEUN(+) neuron cells, the “NEUN(+) neuron cells” value was “more positive cells were present in the experimental group”. For the same compound, the “survival rate of neuron cells” value with NEUN(+) neuron cells was “higher than that in the control group”. Moreover, in the assay on oligodendrocytes (2 weeks after injury, experimental group vs control group), the “CNpase positive area and positive cells” value is “had a larger positive area and more positive cells”. Moreover, the CNpase positive area entry in the assay on oligodendrocytes (48 hours after injury, vs sham-surgery operated group) is “did not markedly differ from that in the shame-surgery operated group”. In the assay with oligodendrocytes (experimental group vs control group), the “survival rate of the oligodendrocytes” value is “higher than that in the control group”. Besides, the BBB score entry was “did not have any statistical significance (p>0.05)” in assay [4] (1 week after injury), “had a statistical significance (p<0.05)” in assay [4] (2 weeks after injury), “had a statistical significance (p<0.01); also recorded: significantly higher than that of the control group” in [4] (8 weeks after injury) and “did not have any statistical significance (p>0.05)” in [4] (48 hours after injury).
